{"source": "patent US11793849B2", "about": "“Method of Chinese herbal medicine extract used for treating multiple diseases caused by drug resistant bacteria infection” (priority 2016, dated 2023)", "key": {"[1]": {"system": "MDRAB", "test": "MIC determination, microdilution broth method", "type": "cell-based, Acinetobacter baumannii", "procedure": "Determination methods of a Minimal Inhibitory Concentration (MIC) and a Minimum Bactericidal Concentration (MBC) of a test product: the MIC and the MBC of the Pithecellobium clypearia Benth water or ethanol extract to the MDRAB are determined by a microdilution broth method. And it is operated by referring to the microdilution broth method recommended by National Committee for Clinical Laboratory Standards (NCCLS)."}, "[2]": {"system": "ATCC27853", "test": "MIC determination, control strain", "type": "cell-based", "procedure": "Determination methods of a Minimal Inhibitory Concentration (MIC) and a Minimum Bactericidal Concentration (MBC) of a test product: the MIC and the MBC of the Pithecellobium clypearia Benth water or ethanol extract to the MDRAB are determined by a microdilution broth method."}, "[3]": {"conditions": "single use, 20 MDRABs, EA=10% ethanol extract"}, "[4]": {"conditions": "single use, 20 MDRABs, EA=water extract"}, "[5]": {"conditions": "single use, 20 MDRABs, section of the 60% ethanol extract"}, "[6]": {"conditions": "single use, 20 MDRABs, section of the 95% ethanol extract"}}, "data": [{"substance": "Polymycin B [POLB]", "values": [{"measurement": "MIC50", "setting": "[1]; MDRABs, EA=60% ethanol extract", "result": 4, "unit": "µg/mL"}, {"measurement": "MIC90", "setting": "[1]; MDRABs, EA=60% ethanol extract", "result": 16, "unit": "µg/mL"}, {"measurement": "MIC Range", "setting": "[1]; MDRABs, EA=60% ethanol extract", "result": "0.5 to 64", "unit": "µg/mL"}, {"measurement": "MIC50", "setting": "[1]; MDRABs, EA=95% ethanol extract", "result": 4, "unit": "µg/mL"}, {"measurement": "MIC90", "setting": "[1]; MDRABs, EA=95% ethanol extract", "result": 16, "unit": "µg/mL"}, {"measurement": "MIC Range", "setting": "[1]; MDRABs, EA=95% ethanol extract", "result": "0.5 to 64", "unit": "µg/mL"}, {"measurement": "MIC50", "setting": "[1]; [3]", "result": 4, "unit": "µg/mL"}, {"measurement": "MIC90", "setting": "[1]; [3]", "result": 16, "unit": "µg/mL"}, {"measurement": "MIC Range", "setting": "[1]; [3]", "result": "0.5 to 64", "unit": "µg/mL"}, {"measurement": "MIC50", "setting": "[1]; [4]", "result": 4, "unit": "µg/mL"}, {"measurement": "MIC90", "setting": "[1]; [4]", "result": 16, "unit": "µg/mL"}, {"measurement": "MIC Range", "setting": "[1]; [4]", "result": "0.5 to 64", "unit": "µg/mL"}, {"measurement": "MIC50", "setting": "[1]; [5]", "result": 4, "unit": "µg/mL"}, {"measurement": "MIC90", "setting": "[1]; [5]", "result": 16, "unit": "µg/mL"}, {"measurement": "MIC50", "setting": "[1]; [6]", "result": 4, "unit": "µg/mL"}, {"measurement": "MIC90", "setting": "[1]; [6]", "result": 16, "unit": "µg/mL"}, {"measurement": "MIC", "setting": "[1]; strain A1, EA=60% ethanol extract", "result": 8, "unit": "µg/mL"}, {"measurement": "MIC", "setting": "[1]; strain A1, EA=95% ethanol extract", "result": 8, "unit": "µg/mL"}, {"measurement": "MIC", "setting": "[1]; strain A1, single use, EA=10% ethanol extract", "result": 8, "unit": "µg/mL"}, {"measurement": "MIC", "setting": "[1]; strain A1, single use, EA=water extract", "result": 8, "unit": "µg/mL"}, {"measurement": "MIC", "setting": "[1]; strain A2, EA=60% ethanol extract", "result": 2, "unit": "µg/mL"}, {"measurement": "MIC", "setting": "[1]; strain A2, EA=95% ethanol extract", "result": 2, "unit": "µg/mL"}, {"measurement": "MIC", "setting": "[1]; strain A2, single use, EA=10% ethanol extract", "result": 2, "unit": "µg/mL"}, {"measurement": "MIC", "setting": "[1]; strain A2, single use, EA=water extract", "result": 2, "unit": "µg/mL"}, {"measurement": "MIC", "setting": "[1]; strain A3, EA=60% ethanol extract", "result": 2, "unit": "µg/mL"}, {"measurement": "MIC", "setting": "[1]; strain A3, EA=95% ethanol extract", "result": 2, "unit": "µg/mL"}, {"measurement": "MIC", "setting": "[1]; strain A3, single use, EA=10% ethanol extract", "result": 2, "unit": "µg/mL"}, {"measurement": "MIC", "setting": "[1]; strain A3, single use, EA=water extract", "result": 2, "unit": "µg/mL"}, {"measurement": "MIC", "setting": "[1]; strain A4, EA=60% ethanol extract", "result": 2, "unit": "µg/mL"}, {"measurement": "MIC", "setting": "[1]; strain A4, EA=95% ethanol extract", "result": 2, "unit": "µg/mL"}, {"measurement": "MIC", "setting": "[1]; strain A4, single use, EA=10% ethanol extract", "result": 2, "unit": "µg/mL"}, {"measurement": "MIC", "setting": "[1]; strain A4, single use, EA=water extract", "result": 2, "unit": "µg/mL"}, {"measurement": "MIC", "setting": "[1]; strain A5, EA=60% ethanol extract", "result": 4, "unit": "µg/mL"}, {"measurement": "MIC", "setting": "[1]; strain A5, EA=95% ethanol extract", "result": 4, "unit": "µg/mL"}, {"measurement": "MIC", "setting": "[1]; strain A5, single use, EA=10% ethanol extract", "result": 4, "unit": "µg/mL"}, {"measurement": "MIC", "setting": "[1]; strain A5, single use, EA=water extract", "result": 4, "unit": "µg/mL"}, {"measurement": "MIC", "setting": "[1]; strain A6, EA=60% ethanol extract", "result": 8, "unit": "µg/mL"}, {"measurement": "MIC", "setting": "[1]; strain A6, EA=95% ethanol extract", "result": 8, "unit": "µg/mL"}, {"measurement": "MIC", "setting": "[1]; strain A6, single use, EA=10% ethanol extract", "result": 8, "unit": "µg/mL"}, {"measurement": "MIC", "setting": "[1]; strain A6, single use, EA=water extract", "result": 8, "unit": "µg/mL"}, {"measurement": "MIC", "setting": "[1]; strain A7, EA=60% ethanol extract", "result": 4, "unit": "µg/mL"}, {"measurement": "MIC", "setting": "[1]; strain A7, EA=95% ethanol extract", "result": 4, "unit": "µg/mL"}, {"measurement": "MIC", "setting": "[1]; strain A7, single use, EA=10% ethanol extract", "result": 4, "unit": "µg/mL"}, {"measurement": "MIC", "setting": "[1]; strain A7, single use, EA=water extract", "result": 4, "unit": "µg/mL"}, {"measurement": "MIC", "setting": "[1]; strain A8, EA=60% ethanol extract", "result": 8, "unit": "µg/mL"}, {"measurement": "MIC", "setting": "[1]; strain A8, EA=95% ethanol extract", "result": 8, "unit": "µg/mL"}, {"measurement": "MIC", "setting": "[1]; strain A8, single use, EA=10% ethanol extract", "result": 8, "unit": "µg/mL"}, {"measurement": "MIC", "setting": "[1]; strain A8, single use, EA=water extract", "result": 8, "unit": "µg/mL"}, {"measurement": "MIC", "setting": "[1]; strain A9, EA=60% ethanol extract", "result": 1, "unit": "µg/mL"}, {"measurement": "MIC", "setting": "[1]; strain A9, EA=95% ethanol extract", "result": 1, "unit": "µg/mL"}, {"measurement": "MIC", "setting": "[1]; strain A9, single use, EA=10% ethanol extract", "result": 1, "unit": "µg/mL"}, {"measurement": "MIC", "setting": "[1]; strain A9, single use, EA=water extract", "result": 1, "unit": "µg/mL"}, {"measurement": "MIC", "setting": "[1]; strain A10, EA=60% ethanol extract", "result": 32, "unit": "µg/mL"}, {"measurement": "MIC", "setting": "[1]; strain A10, EA=95% ethanol extract", "result": 32, "unit": "µg/mL"}, {"measurement": "MIC", "setting": "[1]; strain A10, single use, EA=10% ethanol extract", "result": 32, "unit": "µg/mL"}, {"measurement": "MIC", "setting": "[1]; strain A10, single use, EA=water extract", "result": 32, "unit": "µg/mL"}, {"measurement": "MIC", "setting": "[1]; strain A11, EA=60% ethanol extract", "result": 16, "unit": "µg/mL"}, {"measurement": "MIC", "setting": "[1]; strain A11, EA=95% ethanol extract", "result": 16, "unit": "µg/mL"}, {"measurement": "MIC", "setting": "[1]; strain A11, single use, EA=10% ethanol extract", "result": 16, "unit": "µg/mL"}, {"measurement": "MIC", "setting": "[1]; strain A11, single use, EA=water extract", "result": 16, "unit": "µg/mL"}, {"measurement": "MIC", "setting": "[1]; strain A12, EA=60% ethanol extract", "result": 2, "unit": "µg/mL"}, {"measurement": "MIC", "setting": "[1]; strain A12, EA=95% ethanol extract", "result": 2, "unit": "µg/mL"}, {"measurement": "MIC", "setting": "[1]; strain A12, single use, EA=10% ethanol extract", "result": 2, "unit": "µg/mL"}, {"measurement": "MIC", "setting": "[1]; strain A12, single use, EA=water extract", "result": 2, "unit": "µg/mL"}, {"measurement": "MIC", "setting": "[1]; strain A13, EA=60% ethanol extract", "result": 2, "unit": "µg/mL"}, {"measurement": "MIC", "setting": "[1]; strain A13, EA=95% ethanol extract", "result": 2, "unit": "µg/mL"}, {"measurement": "MIC", "setting": "[1]; strain A13, single use, EA=10% ethanol extract", "result": 2, "unit": "µg/mL"}, {"measurement": "MIC", "setting": "[1]; strain A13, single use, EA=water extract", "result": 2, "unit": "µg/mL"}, {"measurement": "MIC", "setting": "[1]; strain A14, EA=60% ethanol extract", "result": 0.5, "unit": "µg/mL"}, {"measurement": "MIC", "setting": "[1]; strain A14, EA=95% ethanol extract", "result": 0.5, "unit": "µg/mL"}, {"measurement": "MIC", "setting": "[1]; strain A14, single use, EA=10% ethanol extract", "result": 0.5, "unit": "µg/mL"}, {"measurement": "MIC", "setting": "[1]; strain A14, single use, EA=water extract", "result": 0.5, "unit": "µg/mL"}, {"measurement": "MIC", "setting": "[1]; strain A15, EA=60% ethanol extract", "result": 2, "unit": "µg/mL"}, {"measurement": "MIC", "setting": "[1]; strain A15, EA=95% ethanol extract", "result": 2, "unit": "µg/mL"}, {"measurement": "MIC", "setting": "[1]; strain A15, single use, EA=10% ethanol extract", "result": 2, "unit": "µg/mL"}, {"measurement": "MIC", "setting": "[1]; strain A15, single use, EA=water extract", "result": 2, "unit": "µg/mL"}, {"measurement": "MIC", "setting": "[1]; strain A16, EA=60% ethanol extract", "result": 4, "unit": "µg/mL"}, {"measurement": "MIC", "setting": "[1]; strain A16, EA=95% ethanol extract", "result": 4, "unit": "µg/mL"}, {"measurement": "MIC", "setting": "[1]; strain A16, single use, EA=10% ethanol extract", "result": 4, "unit": "µg/mL"}, {"measurement": "MIC", "setting": "[1]; strain A16, single use, EA=water extract", "result": 4, "unit": "µg/mL"}, {"measurement": "MIC", "setting": "[1]; strain A17, EA=60% ethanol extract", "result": 64, "unit": "µg/mL"}, {"measurement": "MIC", "setting": "[1]; strain A17, EA=95% ethanol extract", "result": 64, "unit": "µg/mL"}, {"measurement": "MIC", "setting": "[1]; strain A17, single use, EA=10% ethanol extract", "result": 64, "unit": "µg/mL"}, {"measurement": "MIC", "setting": "[1]; strain A17, single use, EA=water extract", "result": 64, "unit": "µg/mL"}, {"measurement": "MIC", "setting": "[1]; strain A18, EA=60% ethanol extract", "result": 4, "unit": "µg/mL"}, {"measurement": "MIC", "setting": "[1]; strain A18, EA=95% ethanol extract", "result": 4, "unit": "µg/mL"}, {"measurement": "MIC", "setting": "[1]; strain A18, single use, EA=10% ethanol extract", "result": 4, "unit": "µg/mL"}, {"measurement": "MIC", "setting": "[1]; strain A18, single use, EA=water extract", "result": 4, "unit": "µg/mL"}, {"measurement": "MIC", "setting": "[1]; strain A19, EA=60% ethanol extract", "result": 4, "unit": "µg/mL"}, {"measurement": "MIC", "setting": "[1]; strain A19, EA=95% ethanol extract", "result": 4, "unit": "µg/mL"}, {"measurement": "MIC", "setting": "[1]; strain A19, single use, EA=10% ethanol extract", "result": 4, "unit": "µg/mL"}, {"measurement": "MIC", "setting": "[1]; strain A19, single use, EA=water extract", "result": 4, "unit": "µg/mL"}, {"measurement": "MIC", "setting": "[1]; strain A20, EA=60% ethanol extract", "result": 2, "unit": "µg/mL"}, {"measurement": "MIC", "setting": "[1]; strain A20, EA=95% ethanol extract", "result": 2, "unit": "µg/mL"}, {"measurement": "MIC", "setting": "[1]; strain A20, single use, EA=10% ethanol extract", "result": 2, "unit": "µg/mL"}, {"measurement": "MIC", "setting": "[1]; strain A20, single use, EA=water extract", "result": 2, "unit": "µg/mL"}, {"measurement": "MIC", "setting": "[2]; EA=10% ethanol extract", "result": 1, "unit": "µg/mL"}, {"measurement": "MIC", "setting": "[2]; EA=60% ethanol extract", "result": 1, "unit": "µg/mL"}, {"measurement": "MIC", "setting": "[2]; EA=95% ethanol extract", "result": 1, "unit": "µg/mL"}, {"measurement": "MIC", "setting": "[2]; EA=water extract", "result": 1, "unit": "µg/mL"}]}]}
